The record followed here is EPA's ToxRefDB 2.

Data set [1] concerns mouse. To be noted: Multigenerational reproductive toxicity study; cd1; Oral; Feed; dose end: 1 generation; group: offspring; systemic / in life observation / body weight / offspring (pup) weight.
In data set [2] the test system is rat. The note with it: Combined chronic toxicity/carcinogenicity, sprague dawley, Oral, Feed, dose end: 113 week, group: systemic.
The subject of data set [3] is rat. To be noted: Prenatal developmental toxicity study; other; Oral; Gavage/Intubation; dose end: 19 GD; group: maternal; systemic / in life observation / food consumption / food consumption.
The test system of data set [4] is mouse. To be noted: Combined chronic toxicity/carcinogenicity, cd1, Oral, Feed, dose end: 104 week, group: systemic.
In data set [5] the test system is rat. The note with it: Prenatal developmental toxicity study; other; Oral; Water; dose end: 19 GD; group: maternal; systemic / in life observation / water consumption / water consumption.
Data set [6] deals with mouse. The note with it: Carcinogenicity, b6c3f1, Oral, Feed, dose end: 58 week, group: systemic.
In data set [7] the test system is rat. To be noted: Carcinogenicity, fischer, Oral, Feed, dose end: 78 week, group: systemic.
The test system of data set [8] is mouse. The note with it: Subchronic oral toxicity in rodents, cd1, Feed, dose end: 14 week, group: systemic.
The subject of data set [9] is mouse. The note with it: Chronic toxicity; cd1; Oral; Feed; dose end: 57 week; group: systemic; systemic / pathology microscopic / heart / amyloid deposition + systemic / pathology microscopic / liver / eosinophilic focus + systemic / ….
The subject of data set [10] is mouse. The note with it: Chronic toxicity, b6c3f1, Oral, Feed, dose end: 2 year, group: systemic.
For data set [11], the system named is mouse. The note with it: Subchronic oral toxicity in rodents, b6c3f1, Feed, dose end: 14 week, group: systemic, systemic / organ weight / liver / absolute + systemic / organ weight / liver / relative to body weight + systemic / pathology microscopic / ….
Data set [12] deals with rat. The note with it: Combined chronic toxicity/carcinogenicity, fischer, Oral, Feed, dose end: 2 year, group: systemic.
Setting [13] is: systemic / in life observation / body weight / body weight + systemic / in life observation / clinical signs / feces, discoloration + ….
Setting [14] is: systemic / in life observation / clinical signs / fur (altered appearance).
[15] abbreviates: systemic / in life observation / clinical signs / fur (altered appearance) + systemic / in life observation / clinical signs / skin ….
The mark [16] stands for this setting: systemic / pathology microscopic / liver / hyperplasia.
Setting [17] is: systemic / pathology microscopic / liver / hyperplasia + systemic / pathology microscopic / liver / adenoma + systemic / pathology ….
Setting [18] is: systemic / pathology microscopic / liver / neoplastic nodule.
Where [19] appears, read: systemic / in life observation / clinical signs / grip strength + systemic / organ weight / liver / absolute + systemic / organ weight / ….
Setting [20] is: systemic / organ weight / liver / absolute + systemic / pathology microscopic / liver / hypertrophy.
[21] abbreviates: systemic / pathology microscopic / liver / hypertrophy + systemic / pathology microscopic / thyroid gland / hyperplasia.
The mark [22] stands for this setting: systemic / pathology microscopic / liver / hypertrophy + systemic / pathology microscopic / thyroid gland / hyperplasia + systemic / in life….
Where [23] appears, read: systemic / in life observation / body weight / body weight + systemic / pathology microscopic / kidney / adenoma + systemic / in life ….
Where [24] appears, read: systemic / pathology microscopic / kidney / nephropathy.

Bounds are passed on as bounds.

Take `O=C([O-])c1[nH]n(-c2ccc(S(=O)(=O)[O-])cc2)c(=O)c1N=Nc1ccc(S(=O)(=O)[O-])cc1.[Na+].[Na+].[Na+]` [FD&C Yellow 5]: the LEL in the data set on mouse [1] amounted to 771 mg/kg/day; with rat [2] (setting [14]) it was 48 mg/kg/day; in the data set on rat [3], 1000 mg/kg/day; with mouse [4] (setting [15]), 714 mg/kg/day; with rat [5] it was 1060 mg/kg/day. Moreover, the lowest observed adverse effect level (LOAEL) in the data set on mouse [1] was over 771 mg/kg/day; in the data set with rat [2] (setting [13]) it was over 2640 mg/kg/day; with rat [3], over 1000 mg/kg/day; in the data set with mouse [4] (setting [13]), over 8100 mg/kg/day; in the data set on rat [5], over 1060 mg/kg/day. Further, the NEL in the data set with mouse [1] was 260 mg/kg/day; with rat [2] (setting [14]), under 48 mg/kg/day; with rat [3], 600 mg/kg/day; in the data set on mouse [4] (setting [15]), under 714 mg/kg/day; with rat [5] it was 568 mg/kg/day. For the same compound, the NOAEL in the data set with mouse [1] is at least 771 mg/kg/day; with rat [2] (setting [13]), at least 2640 mg/kg/day; in the data set with rat [3], at least 1000 mg/kg/day; with mouse [4] (setting [13]), at least 8100 mg/kg/day; in the data set with rat [5], at least 1060 mg/kg/day.

For `O=Nc1ccc(Nc2ccccc2)cc1` [4-Nitrosodiphenylamine], the LOAEL with mouse [6] (setting [16]) is 638 mg/kg/day; in the data set on rat [7] (systemic / in life observation / body weight / body weight), 250 mg/kg/day. The NOAEL in the data set with mouse [6] (setting [16]) was under 638 mg/kg/day; with rat [7] (systemic / in life observation / body weight / body weight + systemic / pathology microscopic / liver / neoplastic nodule + systemic / …), 125 mg/kg/day. Moreover, the LEL with mouse [6] (setting [17]) was found to be 638 mg/kg/day; in the data set on rat [7] (setting [18]), 125 mg/kg/day. Besides, the values for the NEL in the data set on mouse [6] (setting [17]) and in the data set on rat [7] (setting [18]) were under 638 mg/kg/day and under 125 mg/kg/day, respectively.

In the case of `O=C1Nc2ccc(Cl)cc2C(c2ccccc2)=NC1O` (stereo not drawn) [Oxazepam], the lowest-observed-adverse-effect level (LOAEL) in the data set on mouse [8] (setting [19]) is over 1400 mg/kg/day; with mouse [9], 270 mg/kg/day; in the data set with mouse [10] (setting [21]), 12 mg/kg/day; in the data set with mouse [11], over 1810 mg/kg/day; in the data set with rat [12] (setting [23]) it was over 630 mg/kg/day. For the same compound, the NOAEL in the data set with mouse [8] (setting [19]) is at least 1400 mg/kg/day; in the data set with mouse [9], under 270 mg/kg/day; in the data set on mouse [10] (setting [21]), under 12 mg/kg/day; in the data set with mouse [11] it was at least 1810 mg/kg/day; in the data set on rat [12] (setting [23]), at least 630 mg/kg/day. In addition, the LEL in the data set with mouse [8] (setting [20]) was determined as 80 mg/kg/day; with mouse [9], 270 mg/kg/day; in the data set on mouse [10] (setting [22]) it was 12 mg/kg/day; with mouse [11], 100 mg/kg/day; in the data set with rat [12] (setting [24]), 25 mg/kg/day. Moreover, the NEL in the data set with mouse [8] (setting [20]) was under 80 mg/kg/day; with mouse [9] it was under 270 mg/kg/day; in the data set on mouse [10] (setting [22]), under 12 mg/kg/day; in the data set on mouse [11], under 100 mg/kg/day; in the data set on rat [12] (setting [24]), under 25 mg/kg/day.

A word on the LOAEL: it is the lowest tested level that showed an adverse finding. One may read the NOAEL as the highest tested level that showed no adverse finding.
